Source: patent US4510144A, “Methods of imparting immunomodulating activity with dihydrothiazolo purine derivatives” (Newport Pharmaceuticals International, priority 1982, dated 1985)
Like-named read-outs stand apart in the source and are kept apart here.

Columns and labels:
[1] = test system: murine spleen cells, Con A induced (T-cells); assay: Con A induced lymphocyte proliferation in mouse spleen cells in vitro; type: cell-based, mouse (Balb/C); conditions: for activity at 0.01 µg/mL / activity at 0.1 µg/mL / activity at 1 µg/mL / activity at 2.5 µg/mL / activity at 5 µg/mL / activity at 25 µg/mL / activity at 50 µg/mL: Mus musculus
Text: (1) Mitogen-(Lipopolysaccharide, LPS or Con A) induced lymphocyte proliferation using murine spleen cells (in vitro)
1. […] LPS is a mitogen which acts preferentially on B-cells. […] Con A is considered a T-cell mitogen.
1. Balb/C male mice, 7-8 weeks old, are used up to 20-24 weeks of age.
2. The animals are sacrificed by cervical dislocation and the animals' left sides swabbed with 70% ethanol. An incision is made between the lower ribs and pelvis, laterally from front to back, and the skin retracted. Aseptic technique is to be observed from this point on.
3. The spleen is gently removed with sterile forceps. […] When all spleens have been collected and cleaned they are placed in a second petri dish containing 3 ml cold RPMI.
4. Spleen cell suspensions are prepared by gentle mincing of the tissue with a sterile blade and filtering through #100 stainless steel mesh.
6. An aliquot of the above suspension is prepared for cell counting as follows: 0.1 ml of suspension is diluted to 1.0 ml with 3% acetic acid and let stand at room temperature for at least five minutes. The sample is then diluted 1:100 with "Isoton II" (Curtis-Matheson Co.) and counted in a coulter counter.
MURINE SPLENOCYTE STIMULATION WITH CONCANAVALIN A (CON A), LIPOPOLYSACCHARIDE (LPS), AND ALLOGENEIC SPLENOCYTES (LMC).
There is set forth below the standard procedure which should be modified according to the solubility and other properties of the particular compound tested.
Add ~10 ml RPMI to 1.79 g HEPES and vortex until completely dissolved. […] Allow to warm temperature before use.
5. Con A (Calbiochem)--100 mg/ml NaCl injection solution (McGaw), filter, aliquot in 1 ml, and store at -70° C.
8. Tritiated thymidine (^3 H-TdR, Schwartz-Mann, 6 Ci/mM). Remove a slightly larger volume of ^3 H-TdR than needed from vial with a 1 cc syringe and place volume in the cap of a small sterile plastic tube. […] Vortex thoroughly before adding to plates.
1. Animals are sacrificed by cervical dislocation killing one from each group and processing the cells individually before killing the next animal. Swab each animal with 70% ethanol before surgery. […] Use 8 vertical strokes (or enough to break up all tissue) with Teflon-tipped homogenizer. Filter each sample through a 100 mesh screen into a 50 ml tube. […] After all samples have been spun, vortex each briefly and let sit for 1 hour. Vortex each sample ~5 seconds, waiting ~10 seconds between each sample. Let sit 5 minutes, then pipet cell suspension into 5 ml (12×75 mm) tube being careful not to remove any sediment. Remove 50 ul cell suspension using micropipetter, carefully wipe pipet tip with kimwipe and pipet into 20 ml Isoton in Coulter counter vial, rinsing pipet several times in the Isoton. Add 6 drops of CyMet and swirl vial to mix. Use the following Coulter counter settings: Amplification-1, Threshold-10, and Aperture Current-1. Clean counter with Isoterge the morning of experiment and count background before standardizing with CH 0.60 Hematology Controls. After cell counts are obtained, dilute to 6×10^6 cells/ml with supplemented RPMI and aliquot into 3 tubes for the 3 assays.
1. Pipet 100 μl control media (supplemented RPMI) or appropriate dilution of mitogen (starting with lowest concentration) into microtiter plate using Titertek multi-channel pipetter. Place plates in 37° C. CO2 incubator with CO2 set at 0.5 after each plate has been pipetted. Pipet 100 μl responder cells into wells starting with most dilute mitogen concentration. Place plates in incubator as they are filled and after all plates are in incubator, let sit for 10-20 minutes. Wrap plates with plastic wrap, recover with top, replace in incubator, and reset CO2 to ~0.05. Save ~50 ml supplemented RPMI at 4° C. for thymidine dilution. After ~44 hours warm the RPMI to 37° C. in incubator. Dilute tritiated Thymidine 1:100 in warmed RPMI. Use Titertek to add 50 μl Thymidine to each well. Treat plates as above and incubate overnight (~18 hours).

[2] = test system: lymphocytes from normal volunteers (active E-rosettes); assay: enhancement of active E-rosettes, lymphocytes from normal volunteers in vitro; type: cell-based; conditions: for % E-rosettes (active): control 37
Description: The effects of NPT 16416 on stimulating formation of active rosettes when incubated with lymphocytes in vitro from normal volunteers is described in Table XII. It is important to note that 5×10^-8M concentration of NPT 16416 is capable of producing a 36.5% enhancement of Active E-Rosettes. The enhancement of Active E-Rosettes is biologically important because that fraction of lymphocytes (T-cells) which are the active rosettes are found to be deficient in tumor patients and virus infected individuals. Restoration of this deficiency should benefit the patient.

Compound `Oc1ncnc2c1nc1n2CCS1` [NPT 16416, 3-hydroxy-7,8-dihydrothiazolo-[3,2e]-purine] has an activity at 0.01 µg/mL ([1]; T-cell, drug 10 ng/ml, Con A 1000 ng/ml, drug/control, read-out: Hi Mitogen D/C Con A) of 104%, an activity at 0.1 µg/mL ([1]; T-cell, drug 100 ng/ml, Con A 1000 ng/ml, drug/control, read-out: Hi Mitogen D/C Con A) of 102% and an activity at 1 µg/mL ([1]; T-cell, drug 1,000 ng/ml, Con A 1000 ng/ml, drug/control, read-out: Hi Mitogen D/C Con A) of 103%. The activity at 2.5 µg/mL ([1]; T-cell, drug 2,500 ng/ml, Con A 1000 ng/ml, drug/control, read-out: Hi Mitogen D/C Con A) was 91%, the activity at 5 µg/mL ([1]; T-cell, drug 5,000 ng/ml, Con A 1000 ng/ml, drug/control, read-out: Hi Mitogen D/C Con A) was 101% and the activity at 25 µg/mL ([1]; T-cell, drug 25,000 ng/ml, Con A 1000 ng/ml, drug/control, read-out: Hi Mitogen D/C Con A) was 100%. It also gave an activity at 50 µg/mL ([1]; T-cell, drug 50,000 ng/ml, Con A 1000 ng/ml, drug/control, read-out: Hi Mitogen D/C Con A) of 99%, an activity at 0.01 µg/mL ([1]; read-out: Lo Mitogen D/C Con A) of 85% and an activity at 0.1 µg/mL ([1]; drug 100 ng/ml, Con A 375 ng/ml, drug/control, read-out: Lo Mitogen D/C Con A) of 105%. The activity at 1 µg/mL ([1]; drug 1,000 ng/ml, Con A 375 ng/ml, drug/control, read-out: Lo Mitogen D/C Con A) was 93%, the activity at 1 µg/mL ([1]; drug 1,000 ng/ml, Con A .375 μg/ml, read-out: Con A D/C (maximum values)) was 118% and the activity at 2.5 µg/mL ([1]; drug 2,500 ng/ml, Con A 375 ng/ml, drug/control, read-out: Lo Mitogen D/C Con A) was 98%. For the same compound, the activity at 5 µg/mL ([1]; drug 5,000 ng/ml, Con A 375 ng/ml, drug/control, read-out: Lo Mitogen D/C Con A) was 110%, the activity at 25 µg/mL ([1]; drug 25,000 ng/ml, Con A 375 ng/ml, drug/control, read-out: Lo Mitogen D/C Con A) was 113% and the activity at 25 µg/mL ([1]; drug 25,000 ng/ml, Con A .375 μg/ml, read-out: Con A D/C (maximum values)) was 118%. The activity at 50 µg/mL ([1]; drug 50,000 ng/ml, Con A 375 ng/ml, drug/control, read-out: Lo Mitogen D/C Con A) was 103%, the “CPM Incorp. + Con A” value ([1]; drug 10 ng/ml, Con A 375 ng/ml) was 17.3 CPM × 10^3 and the “CPM Incorp. + Con A” value ([1]; drug 10 ng/ml, Con A 1000 ng/ml) was 61.8 CPM × 10^3. The “CPM Incorp. + Con A” value ([1]; drug 100 ng/ml, Con A 375 ng/ml) was 20.6 CPM × 10^3, the “CPM Incorp. + Con A” value ([1]; drug 100 ng/ml, Con A 1000 ng/ml) was 60.8 CPM × 10^3 and the “CPM Incorp. + Con A” value ([1]; drug 1,000 ng/ml, Con A 375 ng/ml) was 18.0 CPM × 10^3. The “CPM Incorp. + Con A” value ([1]; drug 1,000 ng/ml, Con A 1000 ng/ml) was 60.8 CPM × 10^3, the “CPM Incorp. + Con A” value ([1]; drug 2,500 ng/ml, Con A 375 ng/ml) was 19.1 CPM × 10^3 and the “CPM Incorp. + Con A” value ([1]; drug 2,500 ng/ml, Con A 1000 ng/ml) was 54.0 CPM × 10^3. The “CPM Incorp. + Con A” value ([1]; drug 5,000 ng/ml, Con A 375 ng/ml) was 21.5 CPM × 10^3, the “CPM Incorp. + Con A” value ([1]; drug 5,000 ng/ml, Con A 1000 ng/ml) was 59.7 CPM × 10^3 and the “CPM Incorp. + Con A” value ([1]; drug 25,000 ng/ml, Con A 375 ng/ml) was 22.1 CPM × 10^3. For the same compound, the “CPM Incorp. + Con A” value ([1]; drug 25,000 ng/ml, Con A 1000 ng/ml) was 59.0 CPM × 10^3, the “CPM Incorp. + Con A” value ([1]; drug 50,000 ng/ml, Con A 375 ng/ml) was 20.2 CPM × 10^3 and the “CPM Incorp. + Con A” value ([1]; drug 50,000 ng/ml, Con A 1000 ng/ml) was 58.6 CPM × 10^3. The “effect on Con A induced proliferation (T-cell response), in words” value ([1]; in vitro) was “little or no effect”, the “% E-rosettes (active)” value ([2]; 5 × 10^-5 M) was 43% and the “% E-rosettes (active)” value ([2]; 5 × 10^-7 M) was 55.5%. For the same compound, the “% E-rosettes (active)” value ([2]; 5 × 10^-8 M) was 62.5%, the “% E-rosettes (active)” value ([2]; 5 × 10^-9 M) was 58.5% and the “% E-rosettes (active)” value ([2]; 5 × 10^-10 M) was 42%. It also gave an activation at 50 µM ([2]; Homo sapiens, Lymphocyte, 5 × 10^-5 M, read-out: % increase of active E-rosettes) of 10%, an activation at 0.5 µM ([2]; Homo sapiens, Lymphocyte, 5 × 10^-7 M, read-out: % increase of active E-rosettes) of 23% and an activation at 0.05 µM ([2]; Homo sapiens, Lymphocyte, 5 × 10^-8 M, read-out: % increase of active E-rosettes) of 36.5%. The activation at 0.005 µM ([2]; Homo sapiens, Lymphocyte, 5 × 10^-9 M, read-out: % increase of active E-rosettes) was 34% and the activation at 0.0005 µM ([2]; Homo sapiens, Lymphocyte, 5 × 10^-10 M, read-out: % increase of active E-rosettes) was 7.6%.
